Tests used:
[1] = system: primary mouse neutrophils; assay: Neutrophil ROS production, PMA-stimulated; format: cell-based; conditions: 1 µM, 500 nM PMA
Experimental: (§1) Prex^−/− mice (Prex1^−/−Prex2^−/−) with general P-Rex deficiency were described previously and were compared to Prex^+/+ (Prex1^+/+Prex2^+/+) control mice on the same genetic background (C57Bl6/129Ola backcrossed seven times to C57Bl6). Mice were group-housed (up to 5) under specific opportunistic pathogen-free isolator conditions in Babraham’s small animal barrier facility that uses 12 h light/dark cycles with dusk and dawn settings, and were fed chow diet and water ad libitum. Mice from both sexes were used for experiments, at young-adult age (between 8 and 14 weeks), and were sex- and age-matched between genotypes within experiments. […]
(§2) Mature primary neutrophils were isolated from the bone marrow of age- and sex-matched Prex^+/+ and Prex^−/− mice freshly each day at 4°C, using Percoll^Plus (GE Healthcare) gradient, as described, using endotoxin-free media throughout. Isolated neutrophils were 70–90% pure, as assessed by KwikDiff staining of cytospins. ROS production was measured by real-time chemiluminescence assay as described, except that neutrophils were incubated with PREX-in1 before the assay. […] Real-time ROS production was recorded in a Berthold MicroLumat Plus luminometer (Berthold Technologies) at 37°C, for 2.5 min with fMLP stimulation or for 10 min with PMA stimulation. […]

[2] = system: primary mouse neutrophils; assay: Neutrophil ROS production, fMLP-stimulated; format: cell-based; conditions: 10 µM fMLP
Experimental: as §1, §2

[3] = system: PAE cells expressing eGFP-P-Rex1; assay: PAE cell morphology after PDGF stimulation; format: cell-based, pig; conditions: 1 µM for 15 min
Experimental: Pig aortic endothelial (PAE) cells, which stably overexpress PDGF receptor beta, were grown at 37°C in a humidified 5% CO2 atmosphere in Ham’s F-12 medium with L-glutamine (PAA) supplemented with 10% FBS, 100 units/ml penicillin and 100 µg/ml streptomycin (complete medium). Cells were passaged by tryptic digest 1:4 approximately every 2 days. PAE cells were transfected with eGFP-P-Rex1 by electroporation as described, resuspended in complete medium without antibiotics and plated onto sterile 22 mm glass coverslips in 6-well plates. After 12 h, cells were washed twice in Ham’s F-12 and serum starved in Ham’s F-12 containing 1% fatty acid-free BSA) for 8 h. PREX-in1 was added to the medium to a concentration of 1 µM, or cells were mock-treated with vehicle control (0.05% DMSO), for 15 min at 37°C. Cells were stimulated with 10 ng/ml PDGF for 10 min, or were mock-stimulated, and then fixed in 4% paraformaldehyde, 50 mM Pipes pH 6.8, 1 mM EGTA, 1 mM MgCl2 for 15 min at RT. Cells were washed in PBS, permeabilized for 10 min in PBS containing 0.2% Triton X-100, washed twice in PBS and once in PBS, 0.1% BSA. The F-actin cytoskeleton was stained by incubating samples with TRITC-Phalloidin (Sigma P1951) in PBS, 0.1% BSA for 45 min at RT in the dark. Coverslips were washed twice in PBS, rinsed once in water, and mounted onto slides using Aqua Polymount (Polysciences, Inc.). Samples were imaged using an AxioImager D2 fluorescence microscope (Zeiss, ×200 magnification), taking 15–20 representative images for each duplicate coverslip. Images were analysed blinded to experimental design using ImageJ, for both manual and automated analysis. Using manual analysis, each cell was assigned to a morphology category (basal, with lamellipodia and membrane ruffles, spread with ruffles). With automated analysis, the surface area and circularity of all cells were quantified using the ‘Set Measurements’ analysis tools of ImageJ after assigning a mask to each cell. To determine the proportion of spread cells, cells with a surface area more than 50% larger than the mean under basal conditions (1246 μm^2) were considered spread. eGFP-P-Rex1 expressing cells were compared to non-green fluorescent cells on the same coverslip.

COc1ccc(-c2[nH]nc3c2C(c2ccc(-c4ccc(Cl)cc4)o2)C(C#N)=C(N)O3)cc1 (stereo not shown) [PREX-in1, 6-amino-4-[5-(4-chlorophenyl)-2-furyl]-3-(4-methoxyphenyl)-2,4-dihydropyrano[2,3-c]pyrazole-5-carbonitrile]
effect on PMA-induced ROS response [1]: unaffected | inhibition at 1 µM ([2]; Mus musculus, Neutrophil, 7 min, Prex+/+ neutrophils, 1 µM for 7 min, read-out: inhibition of ROS production overall): 50% | effect on ROS response ([2]; Prex-/- neutrophils, 1 µM): did not affect | morphology of mock-transfected cells [3]: did not affect the morphology | P-Rex1 dependent spreading of PDGF-stimulated cells ([3]; 10 ng/ml PDGF): did inhibit | cell circularity ([3]; automated analysis): lack of effect | proportion of cells with lamellipodia or membrane ruffles ([3]; manual analysis): did not affect the proportion of cells with lamellipodia or membrane ruffles

Source: publication PMC9645260, “Small-molecule inhibitors of P-Rex guanine-nucleotide exchange factors” (Small GTPases, 2022)
